Results reported in patent US20260150874A1, “HUMAN MILK OLIGOSACCHARIDES” (SOCIETE DES PRODUITS NESTLE S.A., priority 2021, published 2026).
Entries after “also recorded” stand apart in the source; their conditions may differ.

Experiments:
visual network = experiment: Association between human milk HMOs and brain functional network connection strength (rsfMRI), visual network; type: in vivo, typically developing infants (human); conditions: A-tetra+ group; infants 0-20 months; human milk HMO level; quantile regression of 25th, 50th, 75th percentiles of CS; across all quantiles
Description: (§1) In this study, we leveraged the UNC/UMN Baby Connectome Project (BCP) published in Neuroimage 2019: Vol 185: 891-905, aiming to longitudinally characterize early brain development, where typically developing children from 0-5 years of age were enrolled, longitudinal resting functional MR imaging (rsfMRI) was administered at each visit. The BCP study was further supplemented by collecting breast milk samples from the mothers whose children were breast-fed at the time of study visit, to allow the determination of potential associations between HMOs and early brain functional development using rsfMRI.
(§2) 153 rsfMRI scans from 91 typically developing infants (0-20 months old) were obtained. Human milk (HM) samples were obtained from the mothers of the participants at each imaging visit and analyzed for HMOs. Brain functional network connection strengths (CS), which have been implicated to reflect brain functional maturation during early brain development, were obtained for the visual, default mode (DMN), sensorimotor, and auditory networks. Age effects for CS and HMOs were removed. Multivariate quantile regression of 25th, 50th, and 75th percentiles of CS with mixed effect was used to examine associations between HMOs and CS for all infants, and stratified by infants who received HM with detectable and undetectable A-tetra (A-tetra+and A-tetra−). […]

auditory network = experiment: Association between human milk HMOs and brain functional network connection strength (rsfMRI), auditory network; type: in vivo, typically developing infants (human); conditions: A-tetra+ group; infants 0-20 months; human milk HMO level; quantile regression of 25th, 50th, 75th percentiles of CS; across all quantiles
Description: as §1, §2

CC(=O)N[C@H]1[C@H]([C@H](O)[C@H](O)CO)O[C@@](OC[C@H]2O[C@@H](O[C@H]3[C@H](O)[C@@H](O)[C@H](O)O[C@@H]3CO)[C@H](O)[C@@H](O)[C@H]2O)(C(=O)O)C[C@@H]1O [6′-SL, 6′-sialyllactose]
association between 6′-SL and visual function (vision resting functional networks, connection strength) (visual network): positive associations; also recorded: significant positive association
association between 6′-SL and auditory function (auditory resting functional networks, connection strength) (auditory network): positive associations; also recorded: significant positive association
